US20230159511A1, “TETRAHYDROISOQUINOLINE COMPOUNDS AS NRF2 ACTIVATORS” (C4X Discovery Limited, priority 2020, published 2023)
Read-outs that look alike come from different tables or passages of the source.

What was measured:
[1] = biological target: T1, human KEAP1 (N-term, residues 321-609) (Homo sapiens, UniProt Q14145); experiment: KEAP1 Kelch Fluorescence Polarization (FP) Assay; type: binding; details: inhibition of Kelch domain-NRF2 interaction; 2 nM FITC-labelled NRF2 peptide, 25 nM KEAP1, 1 h room temperature; compounds below 10 nM cannot be differentiated
T1 construct: human KEAP1 (N-term, residues 321-609)
Procedure, shortened: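 Compounds in 12-point curves (top 10 μM) displaced 2 nM FITC-labelled NRF2 peptide from 25 nM KEAP1 residues 321-609 over 1 h at room temperature. Polarization read at 470/530 nm, window set by 50 μM unlabelled peptide; four-parameter fit gave IC50, floor 10 nM.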

[2] = tested on: NRF2 mediated gene NAD(P)H:quinone acceptor oxidoreductase 1 (NQO1) in BEAS-2B cells; experiment: Beas2B NQO1 mRNA Cell Based Assay; parameters: species or system human; details: Homo sapiens
Procedure, shortened: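 BEAS-2B cells treated 24 h with compound; NQO1 mRNA measured by one-step TaqMan RT-PCR on crude lysates, normalised to beta actin by ΔΔCT. Fold increase over 0.1% DMSO vehicle; EC50 from four-parameter logistic fit.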

[3] = BEAS-2B cells, compound for 24 h, increase in NQO1 mRNA compared to vehicle (0.1% DMSO) control, read-out: EC50

T1 sequence (Q14145 321-609): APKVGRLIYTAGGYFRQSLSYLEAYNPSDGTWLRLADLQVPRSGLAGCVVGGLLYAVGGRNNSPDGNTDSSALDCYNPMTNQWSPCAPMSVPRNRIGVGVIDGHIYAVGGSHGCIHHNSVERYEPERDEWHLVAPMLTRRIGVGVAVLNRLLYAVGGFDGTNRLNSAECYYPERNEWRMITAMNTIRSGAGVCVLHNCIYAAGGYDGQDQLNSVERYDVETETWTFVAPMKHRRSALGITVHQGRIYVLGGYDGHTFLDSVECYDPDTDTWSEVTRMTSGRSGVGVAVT

SMILES | IC50 [1] | EC50 [2, 3] | EC50 ([2]; BEAS-2B, 24 h)
CNC(=O)[C@H]1CCCC[C@H]1C(=O)N1CCc2c(Cl)ccc(OCc3ccc4ncn(C)c4n3)c2[C@H]1CN1CCCC1=O [Example 80, (1S,2R)-2-((S)-5-chloro-8-((3-methyl-3H-imidazo[4,5-b]pyridin-5-yl)methoxy)-1-((2-oxopyrrolidin-1-yl)methyl)-1,2,3,4-tetrahydroisoquinoline-2-carbonyl)-N-methylcyclohexane-1-carboxamide] | 0.371 µM | 2.25 µM | 
CNC(=O)[C@H]1CCCC[C@H]1C(=O)N1CCc2c(Cl)ccc(OCc3nn(C)c4ccccc34)c2[C@H]1CN1CCCC1=O [Example 81, (1S,2R)-2-((S)-5-chloro-8-((1-methyl-1H-indazol-3-yl)methoxy)-1-((2-oxopyrrolidin-1-yl)methyl)-1,2,3,4-tetrahydroisoquinoline-2-carbonyl)-N-methylcyclohexane-1-carboxamide] | 0.723 µM | > 10 µM | 
CNC(=O)[C@@]1(C)CCCC[C@H]1C(=O)N1CCc2c(Cl)ccc(OCc3noc4ccccc34)c2[C@H]1CN1CCCC1=O [Example 83, (1S,2R)-2-((S)-8-(benzo[d]isoxazol-3-ylmethoxy)-5-chloro-1-((2-oxopyrrolidin-1-yl)methyl)-1,2,3,4-tetrahydroisoquinoline-2-carbonyl)-N,1-dimethylcyclohexane-1-carboxamide] | 0.012 µM | 0.473 µM | 
Cn1nnc(COc2ccc(Cl)c3c2[C@@H](CN2CCCC2=O)N(C(=O)[C@@H]2CCCCN2C(=O)C(F)F)CC3)c1C(F)F [Example 84] | 0.161 µM |  | 1.53 µM
CNC(=O)[C@@]1(C)CCC[C@H]1C(=O)N1CCc2c(Cl)ccc(OCc3nnn(C)c3C(F)F)c2[C@H]1CN1CCCC1=O [Example 85, (1S,2R)-2-((S)-5-chloro-8-((5-(difluoromethyl)-1-methyl-1H-1,2,3-triazol-4-yl)methoxy)-1-((2-oxopyrrolidin-1-yl)methyl)-1,2,3,4-tetrahydroisoquinoline-2-carbonyl)-N,1-dimethylcyclopentane-1-carboxamide] | 0.0078 µM | 0.33 µM | 
CNC(=O)[C@H]1CCCC[C@H]1C(=O)N1CCc2c(Cl)ccc(OCc3nnc(C)n3C)c2[C@H]1CN1CCCC1=O [Example 86, (1S,2R)-2-((S)-5-chloro-8-((4,5-dimethyl-4H-1,2,4-triazol-3-yl)methoxy)-1-((2-oxopyrrolidin-1-yl)methyl)-1,2,3,4-tetrahydroisoquinoline-2-carbonyl)-N-methylcyclohexane-1-carboxamide] | 0.014 µM | 2.42 µM | 
CNC(=O)N1CCOC[C@H]1C(=O)N1CCc2c(Cl)ccc(OCc3nnn(C)c3C(F)F)c2[C@H]1CN1CCCC1=O [Example 87, (S)-3-((S)-5-chloro-8-((5-(difluoromethyl)-1-methyl-1H-1,2,3-triazol-4-yl)methoxy)-1-((2-oxopyrrolidin-1-yl)methyl)-1,2,3,4-tetrahydroisoquinoline-2-carbonyl)-N-methylmorpholine-4-carboxamide] | 0.039 µM | 4.13 µM | 
CNC(=O)N1CC2(CC2)C[C@H]1C(=O)N1CCc2c(Cl)ccc(OCc3nnn(C)c3C(F)F)c2[C@H]1CN1CCCC1=O [Example 88, (S)-6-((S)-5-chloro-8-((5-(difluoromethyl)-1-methyl-1 H-1,2,3-triazol-4-yl)methoxy)-1-((2-oxopyrrolidin-1-yl)methyl)-1,2,3,4-tetrahydroisoquinoline-2-carbonyl)-N-methyl-5-azaspiro[2.41]heptane-5-carboxamide] | 0.067 µM |  | 7.56 µM
CNC(=O)N1CCC[C@H]1C(=O)N1CCc2c(Cl)ccc(OCc3cn(C)nn3)c2[C@H]1CN1CCCC1=O [Example 89, (S)-2-((S)-5-chloro-8-((1-methyl-1H-1,2,3-triazol-4-yl)methoxy)-1-((2-oxopyrrolidin-1-yl)methyl)-1,2,3,4-tetrahydroisoquinoline-2-carbonyl)-N-methylpyrrolidine-1-carboxamide] | 0.019 µM | 8.72 µM | 
CNC(=O)[C@@]1(C)CCCC[C@H]1C(=O)N1CCc2c(Cl)ccc(OCc3nnn(C)c3C)c2[C@H]1CN1CCCC1=O [Example 90, (1S,2R)-2-((S)-5-chloro-8-((1,5-dimethyl-1H-1,2,3-triazol-4-yl)methoxy)-1-((2-oxopyrrolidin-1-yl)methyl)-1,2,3,4-tetrahydroisoquinoline-2-carbonyl)-N,1-dimethylcyclohexane-1-carboxamide] | 0.0079 µM | 0.094 µM | 
CNC(=O)[C@@]1(C)CCCC[C@H]1C(=O)N1CCc2c(Cl)ccc(OCc3nnn(C)c3C(F)(F)F)c2[C@H]1CN1CCCC1=O [Example 91, (1S,2R)-2-((S)-5-chloro-8-((1-methyl-5-(trifluoromethyl)-1H-1,2,3-triazol-4-yl)methoxy)-1-((2-oxopyrrolidin-1-yl)methyl)-1,2,3,4-tetrahydroisoquinoline-2-carbonyl)-N,1-dimethylcyclohexane-1-carboxamide] | 0.0098 µM | 0.607 µM | 
CNC(=O)N1CCCC[C@H]1C(=O)N1CCc2c(Cl)ccc(OCc3cn(C)nn3)c2[C@H]1CN1CCCC1=O [Example 92, (S)-2-((S)-5-chloro-8-((1-methyl-1H-1,2,3-triazol-4-yl)methoxy)-1-((2-oxopyrrolidin-1-yl)methyl)-1,2,3,4-tetrahydroisoquinoline-2-carbonyl)-N-methylpiperidine-1-carboxamide] | 0.012 µM | 0.565 µM | 
CNC(=O)[C@@]1(C)CCCC[C@H]1C(=O)N1CCc2c(Cl)ccc(OCc3cn(C)nn3)c2[C@H]1CN1CCCC1=O [Example 93, (1S,2R)-2-((S)-5-chloro-8-((1-methyl-1H-1,2,3-triazol-4-yl)methoxy)-1-((2-oxopyrrolidin-1-yl)methyl)-1,2,3,4-tetrahydroisoquinoline-2-carbonyl)-N,1-dimethylcyclohexane-1-carboxamide] | 0.851 µM | > 10 µM | 
CNC(=O)[C@@]1(C)CCC[C@H]1C(=O)N1CCc2c(Cl)ccc(OCc3nnn(C)c3C(F)F)c2[C@H]1CN1CC2(CC2)CC1=O [Example 94, (1S,2R)-2-((S)-5-chloro-8-((5-(difluoromethyl)-1-methyl-1H-1,2,3-triazol-4-yl)methoxy)-1-((6-oxo-5-azaspiro[2.4]heptan-5-yl)methyl)-1,2,3,4-tetrahydroisoquinoline-2-carbonyl)-N,1-dimethylcyclopentane-1-carboxamide] | 0.013 µM | 0.148 µM | 
CNC(=O)[C@@]1(C)CCCC[C@H]1C(=O)N1CCc2c(Cl)ccc(OCc3nnn(C)c3C(F)(F)F)c2[C@H]1CN1CC2(CC2)CC1=O [Example 97, (1S,2R)-2-((S)-5-chloro-8-((1-methyl-5-(trifluoromethyl)-1H-1,2,3-triazol-4-yl)methoxy)-1-((6-oxo-5-azaspiro[2.4]heptan-5-yl)methyl)-1,2,3,4-tetrahydroisoquinoline-2-carbonyl)-N,1-dimethylcyclohexane-1-carboxamide] | 0.0089 µM | 0.114 µM | 
